Test results: patent US11261189B2, “Substituted 2,4 diamino-quinoline as new medicament for fibrosis, autophagy and cathepsins B (CTSB), L (CTSL) and D (CTSD) related diseases” (Genoscience Pharma, priority 2018, dated 2022)
Structures can show the parent of a compound that is named as a salt.

Tested on: cathepsins B and L (CTSB/L)
Assay: Overall cathepsins B and L (CTSB/L) peptidase activity in lysates of treated HepG2 cells (Z-FR-AMC substrate)
Type: cell-based
Conditions: for CTSB/L activity versus NT: 6 hours of treatment
Protocol: Lysosomal functions was investigated in a hepatocellular carcinoma (HCC) cell line HepG2 after 6 hours and 24 hours of treatment with compound 2-3 (the hydrochloride salt form of compound 2-2) using functional assays of some lysosomal enzymes activity: two cysteine proteinases: cathepsin B (CTSB) and cathepsin L (CTSL), and one aspartic proteinase: cathepsin D (CTSD). Two sets of three concentrations of compound 2-3 (1 μM, 2 μM, and 4 μM for 6 hours, and 0.5 μM, 1 μM and 2 μM for 24 hours) were tested at least in triplicate and four independent experiments were performed. Salinomycin (7.5 μM for 6 hours and 24 hours) was used as a positive control.
The HepG2 cell line was maintained in DMEM (Dulbecco's Modified Eagle Media) high glucose (Cat #L0103-500, Dutscher) containing 1% penicillin-streptomycin (Cat #P06-07100, Dutscher) and 10% FBS (Fetal Bovine Serum) (Cat #11543407, Life Technologies). Cells were cultured at 37° C. with 5% CO2.
The day before the experiment, 6-well plates (Cat #353046, Dutscher) with 250,000 cells in 2.7 mL of medium per well were prepared.
Compound 2-3 was dissolved with filtrated H2O mQ to make a 10 mM stock solution and serial working solutions (10× solutions) were prepared with the diluent (=culture medium with 0.4% H2O mQ) at 5 μM, 10 μM, 20 μM and 40 μM: the “dilution 1” is made from the 10 mM stock solution in the culture medium and the following serial dilutions were made in the diluent to maintain a constant percentage of H2O.
Salinomycin [CAS 53003-10-4] was used as positive control and was dissolved with methanol to make a 10 mM stock solution and a 10× solution at 75 μM was prepared with the culture medium.
300 μL of compound 2-3 10× solutions (solutions at 10 μM, 20 μM and 40 μM for 6 hours of treatment and solutions at 5 μM, 10 μM and 20 μM for 24 hours of treatment) or 300 μL of diluent (=non-treated (NT) condition) or 300 μL of Salinomycin 10× solution were dispensed in the appropriate wells (4 wells/condition). After cells treatment, 6-well plates were returned to incubator for 6 hours or 24 hours.
After 6 hours or 24 hours of cells treatment, the medium was removed from each well. The cells were carefully rinsed with PBS (phosphate-buffered saline, Cat #L0615-500, Dutscher) and detached with 500 μL per well of a trypsin solution. After 5 min of trypsin (Cat #L0930-100, Dutscher) incubation at 37° C., 800 μL of medium was added per well and transferred to a 1.5 mL tube. Then, 800 μL of PBS was used to rinse each well and the corresponding solution was pooled in each corresponding 1.5 mL tube. […] Total protein concentration was assessed using the Bradford reagent (Cat #B6916-500ML, Sigma-Aldrich) and cellular lysates were stored at −80° C. until catalytic activity measurement. […]

## CC(C)(C)NC1CCN(c2cc(NCc3ccc(Cl)cc3)nc3ccccc23)CC1 [2-3, 2-(4-chlorobenzylamino)-4-(4-tert-butylaminopiperidin-1-yl)-quinoline Hydrochloride Salt]
HepG2, 2 μM
  CTSB/L activity versus NT: 78.0%
HepG2, 4 μM
  CTSB/L activity versus NT: 55.3%
HepG2, 2 μM, 4 μM for 6 hours and 1 μM, 2 μM for 24 hours, p<0.05
  inhibition of cathepsins B and L (CTSB/L) compare to the control: statistically significant
